Laboratory results taken from patent US7108863B2, “Liposome composition for improved intracellular delivery of a therapeutic agent” (Alza Corporation, priority 2001, dated 2006).

Tests used:
Namalwa cells = assay: Nuclear accumulation of doxorubicin in Namalwa cells; assay type: cell-based, human; details: 8 μM DXR, 0-12 hours
Method: Nuclear accumulation of doxorubicin was determined as described in Example 7. Briefly, Namalwa cells, maintained under logarithmic growth conditions were treated with doxorubicin-entrapped liposome formulations at a doxorubicin concentration of 8 μM. At various time points (0, 2, 4, 8, 12 hours), an aliquot of the treated cells was ruptured to recover the nuclei. The DNA in the nuclei were enzymatically digested and doxorubicin fluorescence was measured.
Nuclear accumulation of doxorubicin was determined according to the method of Kirchmeier et al. (J. Liposome Res., 11:15 (2001)). Briefly, 4.5×10^8/500 ml Namalwa cells, maintained under logarithmic growth conditions in RPMI 1640 supplemented with 10% FBS, were treated with either free DXR or various liposomal DXR formulations at a DXR concentration of 8 μM.
At various time points (0, 2, 4, 8, 12 hours), 100 ml of cells was pelleted by centrifugation at 1000 rpm for 10 min and washed with 20 ml of TEA buffer. […] After removal of the supernatant, the pellet was diluted to 1 ml with TEA buffer, then vortexed and sonicated until the nuclei were evenly dispersed, as determined by visual inspection.
For each time point, three aliquots of the nuclear fractions (0.2 ml each) were placed in 1.3 ml TEA. […] Following digestion at 22° C. for 2 hours, the doxorubicin fluorescence was recorded (excitation at 480 nm and emission at 595 nm). […]

[1] = system: CD 19± human B-lymphoma (Namalwa) cells; assay: Survival of SCID mice implanted i.v. with Namalwa cells; assay type: in vivo
Method: In another study performed in support of the invention, mice were treated with targeted, pH-sensitive liposomes having releasable PEG chains. Entrapped in the liposomes was the therapeutic agent doxorubicin (DXR). As described in Example 9, the mice were treated with a single dose of 3 mg DXR/kg in free form or entrapped in liposomes. The liposome formulations are summarized in Table 2 and detailed in Example 8.
Namalwa cells were passaged i.p. in CB-17/ICR Tac SCID mice (Charles River Laboratories, Quebec, Canada) to develop a more virulent strain with reproducible tumor take (Lopes de Menezes et al., Cancer Res., 58:3320 (1998)). Namalwa cells were harvested in sterile PBS and implanted into SCID mice. Cell viability was assessed by dye exclusion using Trypan Blue dye before and after the implantation process.
SCID mice (5 mice/group) (Charles River Laboratories), 6–8 weeks of age, were implanted with Namalwa cells i.v. (5×10^6) and treated i.v. at 24 h after implantation with a single dose of 3 mg doxorubicin/kg as either free doxorubicin, doxorubicin-SIL[anti-CD19] or targeted DXR-loaded DOPE/CHEMS formulations stabilized with either mPEG-DSPE or mPEG-S-S-DSPE. The treatment regimens were as follows:
All treatment groups received 3 mg doxorubicin/kg. Mice were monitored routinely for weight loss, and euthanized as they became moribund; survival times were recorded. […]

CD19^+ Namalwa cells = assay: In vitro cytotoxicity, MTT proliferation assay on Namalwa cells; assay type: cell-based; details: Homo sapiens, 48 hours, mean ± SD, read-out: IC50 (μM DXR)
Method: In vitro cytotoxicity of free DXR and various liposomal formulations was evaluated using Namalwa cells with an in vitro proliferation assay as described in Example 6. In addition to the targeted, pH-sensitive liposomes, conventional, non-pH sensitive sterically stabilized liposome (DXR-SL) and doxorubicin in free form were also tested. Each of the test formulations was incubated with the Namalwa cells under controlled conditions for 48 hours. At the end of the incubation time, cytotoxicity was expressed as the inhibitory concentration, that is the concentration required for a 50% inhibition of cell growth (IC50).
A comparison of the in vitro cytotoxicity of free doxorubicin and various liposomal formulations (Table 1) was performed on Namalwa cells with an in vitro proliferation assay using a tetrazolium dye (MTT -3-(4,5-dimethylthiazol-2-yl)-2,5 diphenyltetrazolim bromide; Mosmann, J. J. Immunol Methods, 65:55 (1983)), as described in Lopes de Menezes et al, Cancer Res., 58:3320 (1998).
Briefly, 5×10^5 Namalwa cells were plated in 96-well plates and incubated with either free DXR or various formulations of liposome-encapsulated doxorubicin with or without anti-CD19 mAb. […] At the end of the incubation period, tetrazolium dye was added, and the plates were read on a Titertek Multiskan Plus (Flow Laboratories, Inc. Mississauga, Ontario, Canada) at dual wavelengths of 570 and 650 nm. […]

COc1cccc2c1C(=O)c1c(O)c3c(c(O)c1C2=O)C[C@@](O)(C(=O)CO)C[C@@H]3O[C@H]1C[C@H](N)[C@H](O)[C@H](C)O1 [Free DXR, doxorubicin]
nuclear accumulation of doxorubicin (in words) (Namalwa cells): fastest rate | Increased Life Span (% ILS) ([1]; relative to mean survival time of control mice, 3 mg DXR/kg i.v.): 9.5% | Mean Survival Time (MST ± S.D. (days)) ([1]; single i.v. dose 3 mg DXR/kg 24 h after i.v. implantation, 5 mice/group): 23.0 ± 1.4 days | IC50 (CD19^+ Namalwa cells): 0.8 ± 0.7 µM
